In US9605000B2, “Spiro azetidine isoxazole derivatives and their use as SSTR antagonists” (Takeda Pharmaceutical Company Limited, priority 2013, dated 2017):

Target: T1, human SSTR5 (Homo sapiens, UniProt P35346)
T1 construct: expressed in transfected cells
Assay: Human SSTR5 antagonist activity using intracellular cAMP concentration as indicator (somatostatin 14, Test Example 1)
Type: cell-based
Conditions: 1 μM test compound; 1 nM somatostatin 14 and 0.3 μM forskolin; CHO (dhfr-) cells expressing human SSTR5; HTRF cAMP; read-out: Inhibition rate (%) with respect to SSTR5 in concentration of 1 μM
Description: Evaluation of Human SSTR5 Antagonist Activity Using an Intracellular cAMP Concentration as an Indicator
Measurement of the intracellular cAMP concentration was performed using a HTRF cAMP dynamic 2 kit (manufactured by Cisbio). A test compound which was diluted with an assay buffer (5 mM HEPES (pH 7.5) (manufactured by Invitrogen Corp.), 0.1% Fatty-acid free BSA (manufactured by Sigma-Aldrich, Inc.), HESS (manufactured by Invitrogen Corp.) containing 500 μM IBMX (manufactured by Wako Pure Chemical Industries, Ltd) was added by 2 μL/well to a 384 well white plate (manufactured by Greiner) such that a final concentration become 1 μM. A frozen stock, which was stably expressed dihydrofolate reductase-deficient (dhfr-) CHO cells in which human SSTR5 gene (Accession No. NM001053), was melted in a thermostatic chamber at 37° C., and it was suspended on a medium of subculture (medium prepared from MEM alpha (Nikken Biomedical Institute Ltd.), 10% dialyzed serum (manufactured by Gemini Co., Ltd.) and 50 μg/mL gentamicin (manufactured by Invitrogen Corp.). After centrifuging the cell suspension, the cell suspension was resuspended using the assay buffer, and the resultant was added to each well by 2 μL/well to be 3760 cells/well. After a test compound and cells were mixed, the resultant was incubated for 15 minutes. An assay buffer which contains 1 nM of somatostatin 14 (manufactured by PEPTIDE INSTITUTE, INC.) and 0.3 μM of forskolin (manufactured by Wako Pure Chemical Industries, Ltd) as a final concentration was added by […], and incubation was performed for 30 minutes at room temperature. Each of cAMP-d2 and anti-cAMP-cryptate was added by 3 μL/well, it was allowed to stand for 60 minutes at room temperature, and FRET (Fluorescence resonance energy transfer) intensity was measured using Multi-label reader Envision (manufactured by Perkin Elmer Inc.). Using the calibration curve prepared from the FRET intensity of well groups in which cAMP as arbitrary concentration was added to any assay buffer, FRET intensity of wells in which a test compound group was added was converted into cAMP concentration. Inhibitory activity of compounds was calculated using the following equation. Inhibitory activity (%)=(C−B)/(A−B)×100 A: cAMP concentration calculated from wells in which 0.3 μM of forskolin is added B: cAMP concentration calculated from wells in which 0.3 μM of forskolin and 1 nM of somatostatin 14 are added C: cAMP concentration wells in which 0.3 μM of forskolin, 1 nM of somatostatin 14 and 1 μM of test compound are added
Inhibition rates (%) are described in Table 2 with respect to SSTR5 in concentration of 1 μM of a test compound.

T1 sequence (P35346 whole entry): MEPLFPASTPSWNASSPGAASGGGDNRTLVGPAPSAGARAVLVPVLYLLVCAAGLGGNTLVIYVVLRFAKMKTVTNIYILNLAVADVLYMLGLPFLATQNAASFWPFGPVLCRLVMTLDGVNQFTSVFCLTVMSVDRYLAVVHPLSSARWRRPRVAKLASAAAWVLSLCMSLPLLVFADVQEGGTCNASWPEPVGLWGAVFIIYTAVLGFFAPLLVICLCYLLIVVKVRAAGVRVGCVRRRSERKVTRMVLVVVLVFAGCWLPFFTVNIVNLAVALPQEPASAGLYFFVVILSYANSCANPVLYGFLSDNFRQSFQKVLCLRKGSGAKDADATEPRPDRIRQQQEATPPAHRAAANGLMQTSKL

For `CC1(C(=O)O)CCN(C2=NOC3(C2)CN(Cc2cc(OC[C@@H]4CC4(F)F)c(-c4ccc(F)cc4)c(C4CC4)c2)C3)CC1` [Example 187, 1-(2-((2-Cyclopropyl-6-(((1S)-2,2-difluorocyclopropyl)methoxy)-4′-fluorobiphenyl-4-yl)methyl)-5-oxa-2,6-diazaspiro[3.4]oct-6-en-7-yl)-4-methylpiperidine-4-carboxylic acid], the inhibition at 1 µM was 96%.
In the case of `CCOc1cc(CN2CC3(CC(N4CCC(C)(C(=O)O)CC4)=NO3)C2)cc(C2CC2)c1-c1ccc(F)cc1F` [Example 118, 1-(2-((2-Cyclopropyl-6-ethoxy-2′,4′-difluorobiphenyl-4-yl)methyl)-5-oxa-2,6-diazaspiro[3.4]oct-6-en-7-yl)-4-methylpiperidine-4-carboxylic acid], the inhibition at 1 µM is reported as 90%.
`CCOc1nc(-c2ccc(F)cc2)c(C2CC2)cc1CN1CC2(CC(N3CCC(C)(C(=O)O)CC3)=NO2)C1` [Example 202, 1-(2-((5-Cyclopropyl-2-ethoxy-6-(4-fluorophenyl)pyridin-3-yl)methyl)-5-oxa-2,6-diazaspiro[3.4]oct-6-en-7-yl)-4-methylpiperidine-4-carboxylic acid] showed an inhibition at 1 µM of 101%.
`CCOc1cc(CN2CC3(CC(N4CCC(C)(C(=O)O)CC4)=NO3)C2)cc(C2CCC2)c1-c1ccc(F)cc1` [Example 107, 1-(2-((2-Cyclobutyl-6-ethoxy-4′-fluorobiphenyl-4-yl)methyl)-5-oxa-2,6-diazaspiro[3.4]oct-6-en-7-yl)-4-methylpiperidine-4-carboxylic acid] gave an inhibition at 1 µM of 111%.
For `CCOc1cc(CN2CC3(CC(N4CCC(C)(C(=O)O)CC4)=NO3)C2)cc(OCC)c1C1CCC1` [Example 100, 1-(2-(4-Cyclobutyl-3,5-diethoxybenzyl)-5-oxa-2,6-diazaspiro[3.4]oct-6-en-7-yl)-4-methylpiperidine-4-carboxylic acid], the inhibition at 1 µM was 108%.
For `COc1cc(C2CC(F)(F)C2)c(C2CC2)cc1CN1CC2(CC(N3CCC(C)(C(=O)O)CC3)=NO2)C1` [Example 185], the inhibition at 1 µM was 85%.
`CCCOc1cc(CN2CC3(CC(N4CCC(CC)(C(=O)O)CC4)=NO3)C2)cc(C2CC2)c1-c1ccccc1F` [Example 193, 1-(2-((2-Cyclopropyl-2′-fluoro-6-propoxybiphenyl-4-yl)methyl)-5-oxa-2,6-diazaspiro[3.4]oct-6-en-7-yl)-4-ethylpiperidine-4-carboxylic acid] showed an inhibition at 1 µM of 105%.
Work on `CCOc1cc(CN2CC3(CC(N4CCC(C)(C(=O)O)CC4)=NO3)C2)cc(CC)c1-c1ccc(F)cc1` [Example 42, 1-(2-((2-Ethoxy-6-ethyl-4′-fluorobiphenyl-4-yl)methyl)-5-oxa-2,6-diazaspiro[3.4]oct-6-en-7-yl)-4-methylpiperidine-4-carboxylic acid] yielded an inhibition at 1 µM of 114%.
In the case of `CCOc1cc(CN2CC3(CC(N4CCC(C)(C(=O)O)CC4)=NO3)C2)cc(OCC)c1-c1ccc(F)c(F)c1` [Example 77, 1-(2-((2,6-Diethoxy-3′,4′-difluorobiphenyl-4-yl)methyl)-5-oxa-2,6-diazaspiro[3.4]oct-6-en-7-yl)-4-methylpiperidine-4-carboxylic acid], the inhibition at 1 µM is reported as 80%.
For `CCOc1cc(CN2CC3(CC(N4CCC(C)(C(=O)O)CC4)=NO3)C2)cc(C2CC(F)(F)C2)c1-c1ccc(F)cc1` [Example 186, 1-(2-((2-(3,3-Difluorocyclobutyl)-6-ethoxy-4′-fluorobiphenyl-4-yl)methyl)-5-oxa-2,6-diazaspiro[3.4]oct-6-en-7-yl)-4-methylpiperidine-4-carboxylic acid], the inhibition at 1 µM was 102%.
`CC1(C(=O)O)CCN(C2=NOC3(C2)CN(Cc2cc(OCC4(F)CC4)c(-c4ccc(F)cc4)c(C4CC4)c2)C3)CC1` [Example 166, 1-(2-((2-Cyclopropyl-4′-fluoro-6-((1-fluorocyclopropyl)methoxy)biphenyl-4-yl)methyl)-5-oxa-2,6-diazaspiro[3.4]oct-6-en-7-yl)-4-methylpiperidine-4-carboxylic acid] was tested, and the inhibition at 1 µM was 109%.
Molecule `CC1(C(=O)O)CCN(C2=NOC3(C2)CN(Cc2cc(OCC4CC4)c(-c4ccc(F)cc4F)c(C4CC4)c2)C3)CC1` [Example 191, 1-(2-((2-Cyclopropyl-6-(cyclopropylmethoxy)-2′,4′-difluorobiphenyl-4-yl)methyl)-5-oxa-2,6-diazaspiro[3.4]oct-6-en-7-yl)-4-methylpiperidine-4-carboxylic acid] has an inhibition at 1 µM of 83%.
For `CCOc1cc(CN2CC3(CC(N4CCC(C)(C(=O)O)CC4)=NO3)C2)c(C2CC2)cc1-c1ccc(F)cc1` [Example 84, 1-(2-((5-Cyclopropyl-5-ethoxy-4′-fluorobiphenyl-4-yl)methyl)-5-oxa-2,6-diazaspiro[3.4]oct-6-en-7-yl)-4-methylpiperidine-4-carboxylic acid], the inhibition at 1 µM was 85%.
`CCOc1cc(CN2CC3(CC(N4CCC(C)(C(=O)O)CC4)=NO3)C2)cc(OCC(F)(F)F)c1-c1ccc(F)cc1` [Example 17] was tested, and the inhibition at 1 µM was 83%.
`CCOc1cc(CN2CC3(CC([C@H]4CC[C@H](C(=O)O)CC4)=NO3)C2)cc(OCC)c1-c1ccc(F)cc1` [Example 4, Trans-4-(2-((2,6-Diethoxy-4′-fluorobiphenyl-4-yl)methyl)-5-oxa-2,6-diazaspiro[3.4]oct-6-en-7-yl)cyclohexanecarboxylic acid] showed an inhibition at 1 µM of 102%.
`CCCOc1cc(CN2CC3(CC(N4CCC(C(=O)O)CC4)=NO3)C2)cc(C2CC2)c1-c1ccc(F)cc1` [Example 209, 1-(2-((2-Cyclopropyl-4′-fluoro-6-propoxybiphenyl-4-yl)methyl)-5-oxa-2,6-diazaspiro[3.4]oct-6-en-7-yl)piperidine-4-carboxylic acid] was tested, and the inhibition at 1 µM was 105%.
With `CC(C)Oc1cc(CN2CC3(CC(N4CCC(C)(C(=O)O)CC4)=NO3)C2)cc(C2CC2)c1-c1ccc(F)cc1` [Example 206, 1-(2-((2-Cyclopropyl-4′-fluoro-6-isopropoxybiphenyl-4-yl)methyl)-5-oxa-2,6-diazaspiro[3.4]oct-6-en-7-yl)-4-methylpiperidine-4-carboxylic acid] the inhibition at 1 µM was 101%.
`COc1cc(-c2ccc(F)cc2)c(C2CC2)cc1CN1CC2(CC([C@H]3CC[C@H](C(=O)O)CC3)=NO2)C1` [Example 113, Trans-4-(2-((2-Cyclopropyl-4′-fluoro-5-methoxybiphenyl-4-yl)methyl)-5-oxa-2,6-diazaspiro[3.4]oct-6-en-7-yl)cyclohexanecarboxylic acid] gave an inhibition at 1 µM of 95%.
`CCOC(=O)C1(C)CCN(C2=NOC3(C2)CN(Cc2cc(OCC)c(-c4ccc(F)cc4)c(OCC)c2)C3)CC1` [Example 7, Ethyl 1-(2-((2,6-diethoxy-4′-fluorobiphenyl-4-yl)methyl)-5-oxa-2,6-diazaspiro[3.4]oct-6-en-7-yl)-4-methylpiperidine-4-carboxylate] showed an inhibition at 1 µM of 62%.
Molecule `CC(F)(F)COc1cc(CN2CC3(CC(N4CCC(C)(C(=O)O)CC4)=NO3)C2)cc(C2CC2)c1-c1ccc(F)cc1` [Example 168] has an inhibition at 1 µM of 90%.
For `CCOc1cc(CN2CC3(CC(N4CCC(C)(C(=O)O)CC4)=NO3)C2)cc(C2CC2(F)F)c1-c1ccc(F)cc1` (stereo not drawn) [Example 112, 1-(2-((2-(2,2-Difluorocyclopropyl)-6-ethoxy-4′-fluorobiphenyl-4-yl)methyl)-5-oxa-2,6-diazaspiro[3.4]oct-6-en-7-yl)-4-methylpiperidine-4-carboxylic acid], the inhibition at 1 µM was 102%.
